Experimental data from ChEMBL document CHEMBL1149188, “Synthesis of 2,4-diamino-6-[2'-O-(omega-carboxyalkyl)oxydibenz[b,f]azepin-5-yl]methylpteridines as potent and selective inhibitors of Pneumocystis carinii, Toxoplasma gondii, and Mycobacterium avium dihydrofolate reductase” (J Med Chem, 2004).
pIC50: −log10 of the molar value.

What was measured:
Dihydrofolate reductase [1] = molecular target: T1, Dihydrofolate reductase (Mycobacterium avium, UniProt O30463); assay: Concentration required to inhibit the Mycobacterium avium Dihydrofolate reductase by 50% was determined
T1 sequence (O30463 whole entry): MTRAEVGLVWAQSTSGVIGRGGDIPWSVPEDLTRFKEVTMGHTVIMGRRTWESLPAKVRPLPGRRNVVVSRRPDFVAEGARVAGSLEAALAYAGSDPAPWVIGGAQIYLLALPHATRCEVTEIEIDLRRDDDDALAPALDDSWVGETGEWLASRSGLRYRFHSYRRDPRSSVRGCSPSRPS

Dihydrofolate reductase [2] = molecular target: T2, Dihydrofolate reductase (Homo sapiens, UniProt P00374); assay: Concentration required to inhibit the human Dihydrofolate reductase by 50% was determined (reported by Hoffman-LaRoche group)
T2 sequence (P00374 whole entry): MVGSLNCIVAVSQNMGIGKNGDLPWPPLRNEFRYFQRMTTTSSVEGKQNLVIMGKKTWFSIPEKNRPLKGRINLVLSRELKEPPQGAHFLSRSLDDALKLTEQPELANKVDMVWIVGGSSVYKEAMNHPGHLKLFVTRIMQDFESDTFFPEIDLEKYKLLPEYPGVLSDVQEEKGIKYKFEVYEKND

[3] = molecular target: T3, Bifunctional dihydrofolate reductase-thymidylate synthase (Toxoplasma gondii, UniProt Q07422); assay: Concentration required to inhibit the Toxoplasma gondii Dihydrofolate reductase by 50% was determined (reported by Hoffman-LaRoche group)
T3 sequence (Q07422 whole entry): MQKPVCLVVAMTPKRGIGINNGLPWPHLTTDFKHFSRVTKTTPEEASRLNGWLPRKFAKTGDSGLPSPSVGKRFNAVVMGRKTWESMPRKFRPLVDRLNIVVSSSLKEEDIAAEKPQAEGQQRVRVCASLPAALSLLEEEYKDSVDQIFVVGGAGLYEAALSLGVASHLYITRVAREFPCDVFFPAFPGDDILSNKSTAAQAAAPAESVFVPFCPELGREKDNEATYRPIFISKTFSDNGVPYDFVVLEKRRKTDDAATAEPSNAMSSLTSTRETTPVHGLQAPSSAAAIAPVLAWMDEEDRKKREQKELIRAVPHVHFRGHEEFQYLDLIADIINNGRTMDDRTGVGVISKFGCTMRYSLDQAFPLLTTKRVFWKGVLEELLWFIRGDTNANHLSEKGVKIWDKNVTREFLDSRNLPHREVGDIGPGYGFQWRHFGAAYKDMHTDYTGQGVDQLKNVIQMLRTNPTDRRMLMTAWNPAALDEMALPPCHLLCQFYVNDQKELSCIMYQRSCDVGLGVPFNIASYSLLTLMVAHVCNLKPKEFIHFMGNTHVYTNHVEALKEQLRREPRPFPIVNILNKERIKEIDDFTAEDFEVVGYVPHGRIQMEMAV

Dihydrofolate reductase [4] = molecular target: T2, Dihydrofolate reductase; assay: Concentration required to inhibit the human Dihydrofolate reductase by 50% was determined
[5] = Selectivity index was determined by the ratio for IC50 of rat liver DHFR to the IC50 of Toxoplasma gondii DHFR
[6] = molecular target: T3, Bifunctional dihydrofolate reductase-thymidylate synthase; assay: Concentration required to inhibit the Toxoplasma gondii Dihydrofolate reductase by 50% was determined; Range: 20-23
[7] = Selectivity index was determined by the ratio for IC50 of rat liver DHFR to the IC50 of Pneumocystis carinii DHFR; Range: 80-150
Dihydrofolate reductase [8] = molecular target: T4, Dihydrofolate reductase (Rattus norvegicus, UniProt Q920D2); assay: Concentration required to inhibit the rat liver Dihydrofolate reductase by 50% was determined; Range: 1100-1500
T4 sequence (Q920D2 whole entry): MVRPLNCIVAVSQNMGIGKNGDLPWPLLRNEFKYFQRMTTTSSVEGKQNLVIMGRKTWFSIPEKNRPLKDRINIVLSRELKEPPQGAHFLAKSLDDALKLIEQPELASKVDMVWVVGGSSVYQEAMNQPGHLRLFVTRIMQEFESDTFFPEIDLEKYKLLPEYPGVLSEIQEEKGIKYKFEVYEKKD

Dihydrofolate reductase [9] = molecular target: T1, Dihydrofolate reductase; assay: Concentration required to inhibit the Mycobacterium avium Dihydrofolate reductase by 50% was determined; Range: 6.5-8.0
[10] = Selectivity index was determined by the ratio for IC50 of rat liver DHFR to the IC50 of Toxoplasma gondii DHFR; Range: 55-65
Dihydrofolate reductase [11] = molecular target: T5, Dihydrofolate reductase (Pneumocystis carinii, UniProt P16184); assay: Concentration required to inhibit the Pneumocystis carinii Dihydrofolate reductase by 50% was determined; Range: 9.8-12
T5 sequence (P16184 whole entry): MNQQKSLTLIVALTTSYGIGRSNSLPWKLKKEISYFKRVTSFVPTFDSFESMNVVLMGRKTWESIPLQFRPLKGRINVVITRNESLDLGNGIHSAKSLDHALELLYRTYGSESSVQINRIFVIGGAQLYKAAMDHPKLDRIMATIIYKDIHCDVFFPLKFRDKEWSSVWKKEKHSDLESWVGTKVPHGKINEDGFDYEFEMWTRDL

[12] = Selectivity index was determined by the ratio for IC50 of rat liver DHFR to the IC50 of Mycobacterium avium DHFR; Range: 140-230
[13] = Selectivity index was determined by the ratio for IC50 of rat liver DHFR to the IC50 of Toxoplasma gondii DHFR; Range: 53-113
[14] = molecular target: T3, Bifunctional dihydrofolate reductase-thymidylate synthase; assay: Concentration required to inhibit the Toxoplasma gondii Dihydrofolate reductase by 50% was determined; […]
[15] = Selectivity index was determined by the ratio for IC50 of rat liver DHFR to the IC50 of Mycobacterium avium DHFR; […]
Dihydrofolate reductase [16] = molecular target: T4, Dihydrofolate reductase; assay: Concentration required to inhibit the rat liver Dihydrofolate reductase by 50% was determined; […]
Dihydrofolate reductase [17] = molecular target: T5, Dihydrofolate reductase; assay: Concentration required to inhibit the Pneumocystis carinii Dihydrofolate reductase by 50% was determined; Range: 58-110
[18] = molecular target: T3, Bifunctional dihydrofolate reductase-thymidylate synthase; assay: Concentration required to inhibit the Toxoplasma gondii Dihydrofolate reductase by 50% was determined
Dihydrofolate reductase [19] = molecular target: T4, Dihydrofolate reductase; assay: Concentration required to inhibit the rat liver Dihydrofolate reductase by 50% was determined
[20] = Selectivity index was determined by the ratio for IC50 of rat liver DHFR to the IC50 of Pneumocystis carinii DHFR; Range: 11-16
Dihydrofolate reductase [21] = molecular target: T1, Dihydrofolate reductase; assay: Concentration required to inhibit the Mycobacterium avium Dihydrofolate reductase by 50% was determined; Range: 1.2-1.4
Dihydrofolate reductase [22] = molecular target: T5, Dihydrofolate reductase
[23] = Selectivity index was determined by the ratio for IC50 of rat liver DHFR to the IC50 of Toxoplasma gondii DHFR; Range: 12-19
Dihydrofolate reductase [24] = molecular target: T4, Dihydrofolate reductase; assay: Concentration required to inhibit the rat liver Dihydrofolate reductase by 50% was determined; Range: 370-440
[25] = Selectivity index was determined by the ratio for IC50 of rat liver DHFR to the IC50 of Mycobacterium avium DHFR; Range: 260-370
[26] = molecular target: T3, Bifunctional dihydrofolate reductase-thymidylate synthase; assay: Concentration required to inhibit the Toxoplasma gondii Dihydrofolate reductase by 50% was determined; Range: 23-30
[27] = molecular target: T3, Bifunctional dihydrofolate reductase-thymidylate synthase
Description: Concentration required to inhibit the Toxoplasma gondii Dihydrofolate reductase by 50% was determined; Range: 8.9-11

Dihydrofolate reductase [28] = molecular target: T5, Dihydrofolate reductase; remark: listed apart in the source
Description: Concentration required to inhibit the Pneumocystis carinii Dihydrofolate reductase by 50% was determined; Range: 0.92-1.3

Dihydrofolate reductase [29] = molecular target: T4, Dihydrofolate reductase
Dihydrofolate reductase [30] = molecular target: T1, Dihydrofolate reductase
[31] = Selectivity index was determined by the ratio for IC50 of human DHFR to the IC50 of Mycobacterium avium DHFR
[32] = Selectivity index was determined by the ratio for IC50 of rat liver DHFR to the IC50 of Mycobacterium avium DHFR; Range: 23-48
[33] = Selectivity index was determined by the ratio for IC50 of rat liver DHFR to the IC50 of Pneumocystis carinii DHFR; Range: 10-17
[34] = molecular target: T3, Bifunctional dihydrofolate reductase-thymidylate synthase; remark: listed apart in the source
Description: Concentration required to inhibit the Toxoplasma gondii Dihydrofolate reductase by 50% was determined; Range: 12-24

Dihydrofolate reductase [35] = molecular target: T5, Dihydrofolate reductase; assay: Concentration required to inhibit the Pneumocystis carinii Dihydrofolate reductase by 50% was determined; Range: 18-25
Dihydrofolate reductase [36] = molecular target: T4, Dihydrofolate reductase; assay: Concentration required to inhibit the rat liver Dihydrofolate reductase by 50% was determined; Range: 250-300
Dihydrofolate reductase [37] = molecular target: T1, Dihydrofolate reductase; remark: listed apart in the source
Description: Concentration required to inhibit the Mycobacterium avium Dihydrofolate reductase by 50% was determined; Range: 6.2-11

[38] = Selectivity index was determined by the ratio for IC50 of rat liver DHFR to the IC50 of Toxoplasma gondii DHFR; Range: 10-25
[39] = Selectivity index was determined by the ratio for IC50 of rat liver DHFR to the IC50 of Mycobacterium avium DHFR
[40] = molecular target: T3, Bifunctional dihydrofolate reductase-thymidylate synthase; remark: listed apart in the source
Dihydrofolate reductase [41] = molecular target: T1, Dihydrofolate reductase; remark: listed apart in the source
Dihydrofolate reductase [42] = molecular target: T4, Dihydrofolate reductase; remark: listed apart in the source
Dihydrofolate reductase [43] = molecular target: T5, Dihydrofolate reductase; remark: listed apart in the source
Description: Concentration required to inhibit the Pneumocystis carinii Dihydrofolate reductase by 50% was determined; Range: 0.88-1.2

[44] = Selectivity index was determined by the ratio for IC50 of rat liver DHFR to the IC50 of Toxoplasma gondii DHFR; Range: 37-48
[45] = molecular target: T3, Bifunctional dihydrofolate reductase-thymidylate synthase; assay: Concentration required to inhibit the Toxoplasma gondii Dihydrofolate reductase by 50% was determined; Range: 25-30
Dihydrofolate reductase [46] = molecular target: T4, Dihydrofolate reductase; assay: Concentration required to inhibit the rat liver Dihydrofolate reductase by 50% was determined; Range: 1100-1200
Dihydrofolate reductase [47] = molecular target: T5, Dihydrofolate reductase; assay: Concentration required to inhibit the Pneumocystis carinii Dihydrofolate reductase by 50% was determined; Range: 19-29
[48] = Selectivity index was determined by the ratio for IC50 of rat liver DHFR to the IC50 of Mycobacterium avium DHFR; Range: 250-330
Dihydrofolate reductase [49] = molecular target: T1, Dihydrofolate reductase; assay: Concentration required to inhibit the Mycobacterium avium Dihydrofolate reductase by 50% was determined; Range: 3.6-4.4
[50] = Selectivity index was determined by the ratio for IC50 of rat liver DHFR to the IC50 of Pneumocystis carinii DHFR; Range: 12-63

CCOc1cc(Cc2cnc(N)nc2N)cc(OCC)c1-n1cccc1 [EPIROPRIM]
pIC50 (Dihydrofolate reductase [1]): 8.39
pIC50 (Dihydrofolate reductase [2]): 3.22
pIC50 [3]: 6.05
pIC50 (Dihydrofolate reductase [4]): 3.22
SI [5]: 670

Nc1nc(N)c2nc(CN3c4ccccc4C=Cc4cc(OCCCCC(=O)O)ccc43)cnc2n1
pIC50 [6]: 7.68
SI [7]: 120
pIC50 (Dihydrofolate reductase [8]): 5.89
pIC50 (Dihydrofolate reductase [9]): 8.14
SI [10]: 62
pIC50 (Dihydrofolate reductase [11]): 7.96
SI [12]: 180

Nc1nc(N)c2nc(CN3c4ccccc4C=Cc4ccccc43)cnc2n1
SI [13]: 77
pIC50 [14]: 7.41
SI [15]: 250
pIC50 (Dihydrofolate reductase [16]): 5.52
pIC50 (Dihydrofolate reductase [17]): 7.10

Nc1nc(N)c2nc(CSc3ccc(Sc4ccccc4)cc3)cnc2n1
pIC50 [18]: 6.11
SI [5]: 320
pIC50 (Dihydrofolate reductase [19]): 3.60

Nc1nc(N)c2nc(CN3c4ccccc4C=Cc4cc(O)ccc43)cnc2n1
SI [20]: 13
pIC50 (Dihydrofolate reductase [21]): 8.89
pIC50 (Dihydrofolate reductase [22]): 7.51
SI [23]: 16
pIC50 (Dihydrofolate reductase [24]): 6.39
SI [25]: 320
pIC50 [26]: 7.59

Nc1nc(N)c2nc(CN3c4ccccc4C=Cc4cc(OCCCC(=O)O)ccc43)cnc2n1
pIC50 [27]: 8.00
pIC50 (Dihydrofolate reductase [28]): 8.96
pIC50 (Dihydrofolate reductase [29]): 5.82
pIC50 (Dihydrofolate reductase [30]): 8.70

CCCOc1cc(NCc2cnc3nc(N)nc(N)c3c2C)cc(OCCC)c1
pIC50 (Dihydrofolate reductase [1]): 9.72
SI [31]: 7300

Nc1nc(N)c2nc(CN3c4ccccc4C=Cc4cc(OCC(=O)O)ccc43)cnc2n1
SI [32]: 34
SI [33]: 13
pIC50 [34]: 7.77
pIC50 (Dihydrofolate reductase [35]): 7.68
pIC50 (Dihydrofolate reductase [36]): 6.55
pIC50 (Dihydrofolate reductase [37]): 8.09
SI [38]: 16

CCc1nc(N)nc(N)c1-c1ccc(Cl)c(/N=N/N(CCOC(C)=O)Cc2ccccc2)c1
pIC50 (Dihydrofolate reductase [1]): > 9.00
SI [39]: > 1000

Nc1nc(N)c2nc(CN3c4ccccc4C=Cc4cc(OCc5ccc(C(=O)O)cc5)ccc43)cnc2n1
pIC50 [40]: 7.66
pIC50 (Dihydrofolate reductase [41]): 9.12
pIC50 (Dihydrofolate reductase [42]): 6.24
pIC50 (Dihydrofolate reductase [43]): 9.00

COc1ccc(OC)c(CCc2cnc3nc(N)nc(N)c3c2C)c1
SI [5]: 98

Nc1nc(N)c2nc(CN3c4ccccc4C=Cc4cc(OCCC(=O)O)ccc43)cnc2n1
SI [44]: 39
pIC50 [45]: 7.55
pIC50 (Dihydrofolate reductase [46]): 5.96
pIC50 (Dihydrofolate reductase [47]): 7.62
SI [48]: 280
pIC50 (Dihydrofolate reductase [49]): 8.40
SI [50]: 46
